Experimental data from patent US20250051390A1, “NOVEL ADIPONECTIN-DERIVED PEPTOID DERIVATIVE AND USE THEREOF” (SEOUL NATIONAL UNIVERSITY HOSPITAL, priority 2021, published 2025).

How the values were obtained:
CYP3A4 = CYP3A4 (Homo sapiens, UniProt P08684); test: CYP inhibition assay, CYP3A4; settings: human liver microsomes 0.25 mg/ml, 10 μM, 15 minutes
Description: (§1) Metabolites of each CYP isoenzyme indicator drug produced through the reaction were analyzed by LC-MS/MS using the Shimadzu Nexera XR system and TSQ vantage (Thermo).

AMPK phosphorylation = AMPK phosphorylation activity in mouse adipocytes (Western blot); format: cell-based; settings: 3T3-L1, 10 μM, 24 hours, Western blot; APN5 = 1.0
Description: There were confirmed effects of the peptoid derivative of the present disclosure on the expression and receptor activity of adiponectin in mouse adipocytes as a main adiponectin production site. A mouse adipocyte cell line 3T3-L1 was treated with each of the peptoid derivatives of the present disclosure at a concentration of 10 μM and cultured for 24 hours, and then cells were obtained. Thereafter, the protein was extracted and the effect of adiponectin on AMPK phosphorylation, which was responsible for the main downstream signaling, was confirmed by Western blot.

CYP2D6 = CYP2D6 (Homo sapiens, UniProt P10635); test: CYP inhibition assay, CYP2D6; settings: human liver microsomes 0.25 mg/ml, 10 μM, 15 minutes
Description: as §1

CYP2C19 = CYP2C19 (Homo sapiens, UniProt P33261); test: CYP inhibition assay, CYP2C19; settings: human liver microsomes 0.25 mg/ml, 10 μM, 15 minutes
Description: as §1

CYP1A2 = target: T1, CYP1A2 (Homo sapiens, UniProt P05177); test: CYP inhibition assay, CYP1A2; settings: human liver microsomes 0.25 mg/ml, 10 μM, 15 minutes
T1 sequence (P05177 1-516): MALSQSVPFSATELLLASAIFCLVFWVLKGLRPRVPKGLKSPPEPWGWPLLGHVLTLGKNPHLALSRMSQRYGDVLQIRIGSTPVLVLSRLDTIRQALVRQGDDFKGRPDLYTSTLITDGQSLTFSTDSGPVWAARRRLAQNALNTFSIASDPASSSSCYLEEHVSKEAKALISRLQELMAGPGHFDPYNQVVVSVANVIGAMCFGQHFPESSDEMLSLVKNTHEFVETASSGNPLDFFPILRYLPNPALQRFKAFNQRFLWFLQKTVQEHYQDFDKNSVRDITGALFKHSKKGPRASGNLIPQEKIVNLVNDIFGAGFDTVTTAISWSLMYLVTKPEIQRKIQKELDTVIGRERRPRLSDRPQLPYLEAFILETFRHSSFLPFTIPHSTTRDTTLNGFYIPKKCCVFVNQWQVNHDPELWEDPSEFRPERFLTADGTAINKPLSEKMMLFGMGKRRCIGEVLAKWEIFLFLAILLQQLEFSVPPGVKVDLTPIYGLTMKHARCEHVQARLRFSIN
Description: as §1

Chain of CYP2C19 (P33261 whole entry): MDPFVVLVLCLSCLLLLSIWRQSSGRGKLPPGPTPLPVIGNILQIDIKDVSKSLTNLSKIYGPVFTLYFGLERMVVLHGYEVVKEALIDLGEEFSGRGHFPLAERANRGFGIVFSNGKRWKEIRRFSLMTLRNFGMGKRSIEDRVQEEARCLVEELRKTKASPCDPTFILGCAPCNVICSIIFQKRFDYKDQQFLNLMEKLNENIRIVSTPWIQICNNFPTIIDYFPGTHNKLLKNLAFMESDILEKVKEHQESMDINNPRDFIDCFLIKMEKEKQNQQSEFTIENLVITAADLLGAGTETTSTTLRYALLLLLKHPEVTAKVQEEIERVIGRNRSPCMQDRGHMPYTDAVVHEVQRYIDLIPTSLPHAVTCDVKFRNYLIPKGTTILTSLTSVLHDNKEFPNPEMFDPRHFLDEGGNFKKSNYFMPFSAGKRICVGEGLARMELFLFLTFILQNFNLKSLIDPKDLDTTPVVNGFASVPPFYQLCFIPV
Chain of CYP3A4 (P08684 whole entry): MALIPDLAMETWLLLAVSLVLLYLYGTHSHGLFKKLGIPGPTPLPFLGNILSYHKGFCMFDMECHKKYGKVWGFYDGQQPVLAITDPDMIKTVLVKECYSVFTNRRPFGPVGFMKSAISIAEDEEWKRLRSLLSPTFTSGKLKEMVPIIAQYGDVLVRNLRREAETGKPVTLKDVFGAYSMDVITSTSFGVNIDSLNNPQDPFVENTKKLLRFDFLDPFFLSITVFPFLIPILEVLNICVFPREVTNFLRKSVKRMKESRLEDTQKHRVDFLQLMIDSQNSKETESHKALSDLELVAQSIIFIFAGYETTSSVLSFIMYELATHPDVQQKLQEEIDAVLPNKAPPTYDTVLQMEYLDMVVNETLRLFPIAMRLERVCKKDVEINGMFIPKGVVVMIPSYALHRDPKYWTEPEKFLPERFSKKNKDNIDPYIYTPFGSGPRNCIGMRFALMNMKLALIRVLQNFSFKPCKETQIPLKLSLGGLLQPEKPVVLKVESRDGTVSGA
Chain of CYP2D6 (P10635 whole entry): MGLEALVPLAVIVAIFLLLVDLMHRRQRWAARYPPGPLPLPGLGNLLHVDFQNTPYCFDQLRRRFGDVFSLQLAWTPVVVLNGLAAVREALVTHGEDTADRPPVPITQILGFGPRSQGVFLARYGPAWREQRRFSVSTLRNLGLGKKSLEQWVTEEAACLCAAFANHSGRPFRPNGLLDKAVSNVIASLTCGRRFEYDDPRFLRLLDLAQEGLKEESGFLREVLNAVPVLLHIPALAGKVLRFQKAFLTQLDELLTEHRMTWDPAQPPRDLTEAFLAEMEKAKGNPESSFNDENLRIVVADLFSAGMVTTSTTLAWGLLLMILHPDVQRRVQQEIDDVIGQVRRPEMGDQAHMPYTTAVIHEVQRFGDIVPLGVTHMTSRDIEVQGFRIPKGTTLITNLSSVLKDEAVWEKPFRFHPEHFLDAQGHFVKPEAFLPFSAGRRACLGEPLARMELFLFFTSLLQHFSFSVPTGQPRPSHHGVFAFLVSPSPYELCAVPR

Structure (SMILES): CC(C)C[C@H](NC(=O)CN)C(=O)N[C@@H](Cc1ccc(O)cc1)C(=O)N[C@@H](Cc1ccc(O)cc1)C(=O)N[C@@H](Cc1ccccc1)C(=O)O [APN5, NH2-GLYYF-OH]
- CYP inhibition (% of control activity) CYP3A4 (CYP3A4): 82.9 % of control activity
- AMPK phosphorylation activity (fold change) (AMPK phosphorylation): 1.0 fold change
- CYP inhibition (% of control activity) CYP2D6 (CYP2D6): 92.3 % of control activity
- CYP inhibition (% of control activity) CYP2C19 (CYP2C19): 98.5 % of control activity
- CYP inhibition (% of control activity) CYP1A2 (CYP1A2): 88.8 % of control activity
